{
  "source": "patent US20260069552A1",
  "about": "“Methods of Providing a Cooling Sensation to Skin Afflicted with Eczema” (Kenvue Brands LLC, priority 2022, published 2026)",
  "system": "Staphylococcus epidermidis (ATCC 12228)",
  "assay": "In vitro bacteria competition assay (co-culture)",
  "assay_type": "cell-based",
  "settings": "1:1 co-culture with S. aureus in Nutrient Broth, 24 hours aerobic, CFU/mL; versus untreated; w/v % as in label; n=3",
  "procedure": "In vitro bacteria competition assay evaluated Staphylococcus epidermidis (ATCC 12228, skin health associated strain) and Staphylococcus aureus (ATCC 6538, human lesion isolate) co-culture in the presence of test materials. Percentages are w/v % in liquid medium (Nutrient Broth, Culture Media and Supplies Inc.) To mimic the microenvironment of the skin surface, an aerobic, co-culture system of S. epidermidis and S. aureus was established. 50 μL S. epidermidis and 50 μL S. aureus (a 1:1 ratio) were inoculated (50 μL at approximately 5.0×10^6 CFU/mL each) in Nutrient Broth and in the presence of the test materials as specified in Table 14 below. [table] Test groups were incubated aerobically for 24 hours (n=3 per test group) After 24 hours, each test group was plated onto agar and incubated aerobically for 24 hours […]. After incubation, colonies were counted, and CFU/mL calculated. S. epidermidis and S. aureus colonies were differentiated on agar (Tryptic Soy Agar+5% sheep's blood, BD Diagnostics) based on representative morphology.",
  "data": [
    {"compound": "CC(O)C(=O)O", "note": "(stereo not shown) [Lactic Acid (1.1%), Lactic acid]", "values": [
      {"measurement": "S. epidermidis growth in bacteria competition assay", "value": "inhibited"}
    ]}
  ]
}
